Measured values reported in patent publication US20050032873A1, “3-Amino chroman and 2-amino tetralin derivatives” (Wyeth, priority 2003, published 2005).
Where two headings read alike, the source gives them in different places.

What was measured:
[1] = target: T1, cloned human 5-HT1A receptors (Homo sapiens, UniProt P08908); assay: 35S-GTPγS binding assay, 5-HT1A function; type: biochemical; settings: for EC50: agonist potency; for IC50: antagonist potency, reversal of 8-OH-DPAT, read-out: 5-HT1A Function GTPγS IC50
T1 construct: expressed in transfected cells
T1 sequence (P08908 1-422): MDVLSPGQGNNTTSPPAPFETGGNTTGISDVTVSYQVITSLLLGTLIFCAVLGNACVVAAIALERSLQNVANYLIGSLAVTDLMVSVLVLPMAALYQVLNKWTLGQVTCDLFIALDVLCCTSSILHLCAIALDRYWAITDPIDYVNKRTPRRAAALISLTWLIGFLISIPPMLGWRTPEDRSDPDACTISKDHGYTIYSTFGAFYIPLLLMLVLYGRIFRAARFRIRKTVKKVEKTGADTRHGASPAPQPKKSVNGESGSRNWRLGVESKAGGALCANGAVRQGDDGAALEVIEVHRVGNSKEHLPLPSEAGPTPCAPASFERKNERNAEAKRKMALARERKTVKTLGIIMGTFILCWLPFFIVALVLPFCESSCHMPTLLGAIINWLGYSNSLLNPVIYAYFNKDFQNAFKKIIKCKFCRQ

5-HT1A receptor [2] = target: T2, 5-HT1A receptor (Homo sapiens, UniProt P08908); assay: 5-HT1A receptor affinity: displacement of [3H] 8-OH-DPAT; type: binding; design: expressed in transfected cells; settings: displacement of [3H] 8-OH-DPAT; CHO cells stably transfected with human 5-HT1A receptors; read-out: 5-HT1A Receptor Affinity Ki
T2 sequence (P08908 1-422): T1 sequence (P08908 1-422)

serotonin transporter = target: T3, serotonin transporter (Rattus norvegicus, UniProt P31652); assay: 5-HT transporter affinity: displacement of 3H-paroxetine from male rat cortical membranes; type: binding; settings: displacement of 3H-paroxetine; male rat cortical membranes; read-out: 5-HT Transporter Affinity Ki
T3 construct: displace ^3H-paroxetine from male rat cortical membranes; from tissue; host or cells: male rat cortical membranes
T3 sequence (P31652 whole entry): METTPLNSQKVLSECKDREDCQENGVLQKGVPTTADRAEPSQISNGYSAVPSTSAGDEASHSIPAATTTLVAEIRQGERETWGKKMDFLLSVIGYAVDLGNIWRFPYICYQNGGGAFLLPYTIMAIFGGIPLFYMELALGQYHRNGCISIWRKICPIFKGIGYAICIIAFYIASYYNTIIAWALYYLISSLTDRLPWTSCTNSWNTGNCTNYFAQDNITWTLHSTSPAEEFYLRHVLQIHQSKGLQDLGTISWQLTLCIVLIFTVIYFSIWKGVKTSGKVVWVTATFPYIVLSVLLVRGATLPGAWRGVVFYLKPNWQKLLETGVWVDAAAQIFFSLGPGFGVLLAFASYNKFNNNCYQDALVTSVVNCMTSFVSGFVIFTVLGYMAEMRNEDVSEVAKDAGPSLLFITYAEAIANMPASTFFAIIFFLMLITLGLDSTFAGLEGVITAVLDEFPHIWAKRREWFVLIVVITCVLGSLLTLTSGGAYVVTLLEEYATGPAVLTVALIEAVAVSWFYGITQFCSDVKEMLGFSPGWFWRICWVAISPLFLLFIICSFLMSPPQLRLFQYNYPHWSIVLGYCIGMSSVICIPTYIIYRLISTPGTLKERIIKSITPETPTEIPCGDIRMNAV

5-HT1A receptor [3] = target: T2, 5-HT1A receptor; assay: cAMP accumulation assay, 5-HT1A function; type: cell-based; settings: for EC50: cells marked EC50 (agonist); for 5-HT1A Function cAMP (Emax) / Emax: in brackets after EC50 or IC50; for IC50: cells marked IC50 (antagonist), read-out: 5-HT1A Function cAMP IC50; for Emax: read-out: 5-HT1A Function cAMP (Emax)
[4] = maximum stimulatory effect, in brackets after EC50, read-out: 5-HT1A Function GTPγS (Emax)
[5] = maximum inhibitory effect, in brackets after IC50
[6] = maximum inhibitory effect, in brackets after IC50, read-out: 5-HT1A Function GTPγS (Imax)

| SMILES | EC50 [1] [nM] | Emax [1, 4] [%] | Ki (5-HT1A receptor [2]) [nM] | Ki (serotonin transporter) [nM] | 5-HT1A Function cAMP (Emax) (5-HT1A receptor [3]) [%] | IC50 [1] [nM] | 5-HT1A Function GTPγS (Imax) [1, 5] [%] | IC50 (5-HT1A receptor [3]) [nM] | Emax [1, 6] [%] | Emax (5-HT1A receptor [3]) [%] | EC50 (5-HT1A receptor [3]) [nM] | 5-HT1A Function GTPγS (Emax) ([1]; maximum stimulatory effect, in brackets after EC50) [%] |
| --- | --- | --- | --- | --- | --- | --- | --- | --- | --- | --- | --- | --- |
| CCCN(C(C)CCc1c[nH]c2ccc(F)cc12)C1COc2c(F)ccc(C(N)=O)c2C1 (single isomer, unassigned) [Compound 12b, 8-fluoro-3-[[3-(5-fluoro-1H-indol-3-yl)-1-methylpropyl](propyl)amino]-3,4-dihydro-2H-chromene-5-carboxamide] | 366 | 73.5 | 19.4 | 50 | 78 |  |  |  |  |  | 62.6 |  |
| NC(=O)c1ccc(F)c2c1CC(NCCCc1c[nH]c3ccc(F)cc13)CO2 (single isomer, unassigned; (+)) [Compound 1a, (+)-8-fluoro-3-{[3-(5-fluoro-1H-indol-3-yl)propyl]amino}chromane-5-carboxamide] | 993 | 87 | 46.3 | 26.2 |  |  |  |  |  | 84.5 | 95.8 |  |
| CCCN(CCCc1c[nH]c2ccc(F)cc12)C1COc2c(F)ccc(C(N)=O)c2C1 (single isomer, unassigned; (+)) [Compound 2b, (+)-8-fluoro-3-[[3-(5-fluoro-1H-indol-3-yl)propyl](propyl)amino]-3,4-dihydro-2H-chromene-5-carboxamide] | 36.3 | 80 | 2.21 | 3.86 | 97 |  |  |  |  |  | 19.9 |  |
| CCN(CCCc1c[nH]c2ccc(F)cc12)C1COc2c(F)ccc(C(N)=O)c2C1 (single isomer, unassigned; (+)) [Compound 3b, (+)-3-{ethyl[3-(5-fluoro-1H-indol-3-yl)propyl]amino}-8-fluoro-3,4-dihydro-2H-chromene-5-carboxamide] |  |  | 15.5 | 4.5 | 90.5 | 665 | 35.8 |  |  |  | 31.4 |  |
| NC(=O)c1ccc(F)c2c1CC(N(CCCc1c[nH]c3c(F)cc(F)cc13)C1CCC1)CO2 (single isomer, unassigned; (+)) [Compound 9b, (+)-3-{cyclobutyl[3-(5,7-difluoro-1H-indol-3-yl)propyl]amino}-8-fluorochromane-5-carboxamide] |  |  | 68.9 | 12.2 | 0 | 6000 | 74 | 197 |  |  |  |  |
| CC(CCc1c[nH]c2ccc(F)cc12)N(CC1CC1)C1COc2c(F)ccc(C(N)=O)c2C1 (single isomer, unassigned; (+)) [Compound 15b, (+)-3-{(cyclopropylmethyl)[3-(5-fluoro-1H-indol-3-yl)-1-methylpropyl]amino}-8-fluorochromane-5-carboxamide] | 108 | 32 | 31.7 | 46.7 | 73 |  |  |  |  |  | 32.4 |  |
| NC(=O)c1cccc2c1CC(N(CCCc1c[nH]c3ccc(F)cc13)C1CCC1)CO2 (single isomer, unassigned; (+)) [Compound 134b, (+)-3-{cyclobutyl[3-(5-fluoro-1H-indol-3-yl)propyl]amino}chromane-5-carboxamide] | 581 |  | 29.6 | 7.2 | 66.5 |  |  |  |  |  | 44.5 | 71 |
| NC(=O)c1ccc(F)c2c1C[C@@H](NCC1CCc3[nH]c4ccc(F)cc4c3C1)CO2 (single isomer, unassigned; (+)) [Compound 175b] |  |  | 31.4 | 47.6 | 0 | 174 | 55 | 4130 |  |  |  |  |

Second part, led by results:

| EC50 [1] [nM] | Emax [1, 4] [%] | Ki (5-HT1A receptor [2]) [nM] | Ki (serotonin transporter) [nM] | 5-HT1A Function cAMP (Emax) (5-HT1A receptor [3]) [%] | IC50 [1] [nM] | 5-HT1A Function GTPγS (Imax) [1, 5] [%] | IC50 (5-HT1A receptor [3]) [nM] | Emax [1, 6] [%] | Emax (5-HT1A receptor [3]) [%] | SMILES | EC50 (5-HT1A receptor [3]) [nM] | 5-HT1A Function GTPγS (Emax) ([1]; maximum stimulatory effect, in brackets after EC50) [%] |
| --- | --- | --- | --- | --- | --- | --- | --- | --- | --- | --- | --- | --- |
|  |  | 48.8 | 121 | 0 | 3000 | 100 | 73.7 |  |  | CCCN(C(C)CCc1c[nH]c2ccc(F)cc12)C1COc2c(F)ccc(C(N)=O)c2C1 (single isomer, unassigned) [Compound 12c, 8-fluoro-3-[[3-(5-fluoro-1H-indol-3-yl)-1-methylpropyl](propyl)amino]-3,4-dihydro-2H-chromene-5-carboxamide] |  |  |
|  |  | 24.3 | 23.5 | 0 | 534 |  | 76.6 | 100 |  | CCCN(C(C)CCc1c[nH]c2ccc(C#N)cc12)C1COc2c(F)ccc(C(N)=O)c2C1 (single isomer, unassigned) [Compound 13a, 3-[[3-(5-cyano-1H-indol-3-yl)-1-methylpropyl](propyl)amino]-8-fluoro-3,4-dihydro-2H-chromene-5-carboxamide] |  |  |
| 1470 | 56.5 | 152 | 37 | 68 |  |  |  |  |  | CCCN(C(C)CCc1c[nH]c2ccc(C#N)cc12)C1COc2c(F)ccc(C(N)=O)c2C1 (single isomer, unassigned) [Compound 13b, 3-[[3-(5-cyano-1H-indol-3-yl)-1-methylpropyl](propyl)amino]-8-fluoro-3,4-dihydro-2H-chromene-5-carboxamide] | 139 |  |
|  |  | 119 | 118 | 0 | 2520 | 92 | 316 |  |  | CCCN(C(C)CCc1c[nH]c2ccc(C#N)cc12)C1COc2c(F)ccc(C(N)=O)c2C1 (single isomer, unassigned) [Compound 13c, 3-[[3-(5-cyano-1H-indol-3-yl)-1-methylpropyl](propyl)amino]-8-fluoro-3,4-dihydro-2H-chromene-5-carboxamide] |  |  |
|  |  | 24.8 | 67.5 |  | 1990 | 100 | 3090 |  | 0 | CC(CCc1c[nH]c2c(F)cc(F)cc12)N(CC1CC1)C1COc2c(F)ccc(C(N)=O)c2C1 (single isomer, unassigned) [Compound 154c, 3-{(cyclopropylmethyl)[3-(5,7-difluoro-1H-indol-3-yl)-1-methylpropyl]amino}-8-fluorochromane-5-carboxamide] |  |  |
|  |  | 4.16 | 48.8 |  | 151 |  | 106 | 100 | 0 | CC(Cc1c[nH]c2ccc(F)cc12)CN(CC1CC1)[C@H]1COc2c(F)ccc(C(N)=O)c2C1 (single isomer, unassigned) [Compound 155a] |  |  |
|  |  | 41.7 | 13.6 |  | 2210 | 59 | 147 |  | 0 | CCCN(C(C)CCCc1c[nH]c2ccc(F)cc12)C1COc2c(F)ccc(C(N)=O)c2C1 (single isomer, unassigned; (+)) [Compound 14a, (+)-8-fluoro-3-[[4-(5-fluoro-1H-indol-3-yl)-1-methylbutyl](propyl)amino]chromane-5-carboxamide] |  |  |
| 807 | 20 | 128 | 0.95 | 64.5 |  |  |  |  |  | CCN(C(C)CCc1c[nH]c2ccc(F)cc12)C1COc2c(F)ccc(C(N)=O)c2C1 (single isomer, unassigned; (+)) [Compound 16b, (+)-3-{ethyl[3-(5-fluoro-1H-indol-3-yl)-1-methylpropyl]amino}-8-fluorochromane-5-carboxamide] | 164 |  |
| 13 | 69 | 1.71 | 1.15 | 100 |  |  |  |  |  | CCCN(CCCc1c[nH]c2ccc(F)cc12)C1CCc2c(F)ccc(OC)c2C1 (single isomer, unassigned; (+)) [Compound 51a, (+)-5-fluoro-N-[3-(5-fluoro-1H-indol-3-yl)propyl]-8-methoxy-N-propyl-1,2,3,4-tetrahydro-2-naphthalenamine] | 16.5 |  |
|  |  | 0.85 | 192 |  | 1440 | 67 | 64.1 |  | 0 | NC(=O)c1ccc(F)c2c1CC(N(CC1CCc3[nH]c4ccc(F)cc4c3C1)C1CCC1)CO2 (single isomer, unassigned; (+)) [Compound 174b, (+)-3-{cyclobutyl[(6-fluoro-2,3,4,9-tetrahydro-1H-carbazol-3-yl)methyl]amino}-8-fluorochromane-5-carboxamide] |  |  |
| 978 | 55 | 185 | 1100 | 0 |  |  | 607 |  |  | NC(=O)c1ccc(F)c2c1CC(N(CC1CCc3[nH]c4ccc(F)cc4c3C1)C1CCC1)CO2 (single isomer, unassigned; (+)) [Compound 174c, (+)-3-{cyclobutyl[(6-fluoro-2,3,4,9-tetrahydro-1H-carbazol-3-yl)methyl]amino}-8-fluorochromane-5-carboxamide] |  |  |
